Data: patent US6696474B2, “Antidiabetic agents” (Warner Lambert Co. LLC., priority 2002, dated 2004)
Read-outs that look alike come from different tables or passages of the source.

Tests used:
[1] = molecular target: T1, PPAR-γ (Mus musculus, UniProt P37238); assay: 3T3-L1 transient reporter assay (AD3T3-L1 reporter); assay type: cell-based, murine; conditions: for EC50: 3T3-L1 cells, aP2 promoter luciferase reporter, 48 hours
T1 construct: endogenous in cells; host or cells: 3T3-L1 preadipocytes, differentiated for about 3 days with methyl isobutylxanthine, dexamethasone and insulin
T1 sequence (P37238 1-505): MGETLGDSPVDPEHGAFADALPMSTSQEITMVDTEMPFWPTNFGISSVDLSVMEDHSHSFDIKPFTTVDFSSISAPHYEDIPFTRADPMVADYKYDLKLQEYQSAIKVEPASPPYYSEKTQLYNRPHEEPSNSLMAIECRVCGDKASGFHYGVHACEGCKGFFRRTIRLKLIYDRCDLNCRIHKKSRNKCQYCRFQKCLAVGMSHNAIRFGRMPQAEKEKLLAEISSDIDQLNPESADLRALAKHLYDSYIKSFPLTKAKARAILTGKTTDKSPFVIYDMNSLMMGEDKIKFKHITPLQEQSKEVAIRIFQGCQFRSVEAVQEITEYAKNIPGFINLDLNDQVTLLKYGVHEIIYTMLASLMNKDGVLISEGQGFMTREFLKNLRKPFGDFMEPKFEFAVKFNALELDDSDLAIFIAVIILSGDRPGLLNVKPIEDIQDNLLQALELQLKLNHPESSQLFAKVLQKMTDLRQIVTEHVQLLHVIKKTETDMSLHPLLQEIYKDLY
Protocol: This assay is used to determine the potential of putative PPAR-γ ligands to activate the promoter/enhancer of the murine aP2 gene. 3T3-L1 preadipocytes are cultured on collagen coated plates in DMEM containing 10% Calf serum for 48 hours post-confluence. The cells are then cultured for approximately 3 days in DMEM containing 10% Fetal Bovine Serum (FBS), 0.5-mM methyl isobutylxanthine, 0.25 μM dexamethasone, and 1 μg/ml of insulin. Cells are detached from the plates with Trypsin-EDTA and resuspended in Phosphate Buffered Saline (PBS).
The reporter construct used in this assay is comprised of the —5.4 Kb 5′ flanking region of the murine aP2 gene inserted into the cloning site of the TKpGL3 luciferase vector. Transfection efficiency is controlled by co-transfection of the reference plasmid CMV-β-galactosidase. The reporter construct and the reference plasmid are transiently co-transfected into the cells by electroporation. The transfected cells are plated into collagen coated 96-well plates and cultured overnight. Cells are then incubated for 48 hours with the test compounds and then harvested. The lysates are measured for luciferase and β-galactosidase activities using the Dual-Light® luciferase kit from Tropix on a EG&G Berthold MicroLumat LB96P luminometer.

[2] = test system: Ob/Ob diabetic mouse model; assay: Blood glucose measurement (Glucose Δ) in Ob/Ob diabetic mouse model; assay type: in vivo
Protocol: Glucose is obtained 4 hours post dose via tail vein stick (5 μl whole blood) in awake, 4 hour fasted animals. Blood is drawn by capillary action into a glucose cuvette and read in a HemoCue Glucose Analyzer (Ryan Diagnostics). Blood is diluted 1:2 with saline if glucose levels are greater than 400 mg/dl (meter high range) and results multiplied by two.

[3] = 3T3-L1, maximal response relative to rosiglitazone, read-out: AD3T3-L1 Reporter Max. % Rosi (maximal response)

Row | Compound | Emax ([1]; 3T3-L1, read-out: AD3T3-L1 Reporter Max. % Rosi (maximal response)) | EC50 [1] | Emax [1, 3] | In VIVO Δ Glucose @ 20 mg/kg ([2]; 20 mg/kg, glucose 4 hours post dose) | In VIVO % Rosiglitazone ([2]; 20 mg/kg, glucose change relative to rosiglitazone) | Blood glucose in Ob/Ob diabetic mouse model ([2]; Ob/Ob diabetic mouse, in 3 days at 20 mg/Kg)
1 | Cc1oc(-c2ccccc2)nc1CCCC#CCC(C(=O)O)n1cccc1 (stereo not drawn) [Example 1-11] | 108% | 89 nM | – | – | – | –
2 | Cc1oc(-c2ccccc2)nc1CCCC#CCC(C(=O)O)c1cccs1 (stereo not drawn) [Example 1-13, 8-(5-Methyl-2-phenyl-oxazol-4-yl)-2-thiophen-2-yl-oct-4-ynoic Acid] | – | 303 nM | 97% | – | – | –
3 | Cc1oc(-c2ccccc2)nc1CCCC#CCC(C(=O)O)n1nccn1 (stereo not drawn) [Example 1-15, 8-(5-Methyl-2-phenyl-oxazol-4-yl)-2-[1,2,3]triazol-2-yl-oct-4-ynoic Acid] | – | 15 nM | 103% | -258 mg/dL | 180% | Normalized blood glucose
